According to patent US8431563B2 (priority 2010, dated 2013):
pEC50, pIC50: −log10 of the molar value. Like-named read-outs stand apart in the source and are kept apart here.

Tests used:
[1] = biological target: T1, interaction between glucokinase (GK) and glucokinase regulatory protein (GKRP) (Homo sapiens, UniProt Q14397); assay: biochemical; format: binding
T1 sequence (Q14397 1-625): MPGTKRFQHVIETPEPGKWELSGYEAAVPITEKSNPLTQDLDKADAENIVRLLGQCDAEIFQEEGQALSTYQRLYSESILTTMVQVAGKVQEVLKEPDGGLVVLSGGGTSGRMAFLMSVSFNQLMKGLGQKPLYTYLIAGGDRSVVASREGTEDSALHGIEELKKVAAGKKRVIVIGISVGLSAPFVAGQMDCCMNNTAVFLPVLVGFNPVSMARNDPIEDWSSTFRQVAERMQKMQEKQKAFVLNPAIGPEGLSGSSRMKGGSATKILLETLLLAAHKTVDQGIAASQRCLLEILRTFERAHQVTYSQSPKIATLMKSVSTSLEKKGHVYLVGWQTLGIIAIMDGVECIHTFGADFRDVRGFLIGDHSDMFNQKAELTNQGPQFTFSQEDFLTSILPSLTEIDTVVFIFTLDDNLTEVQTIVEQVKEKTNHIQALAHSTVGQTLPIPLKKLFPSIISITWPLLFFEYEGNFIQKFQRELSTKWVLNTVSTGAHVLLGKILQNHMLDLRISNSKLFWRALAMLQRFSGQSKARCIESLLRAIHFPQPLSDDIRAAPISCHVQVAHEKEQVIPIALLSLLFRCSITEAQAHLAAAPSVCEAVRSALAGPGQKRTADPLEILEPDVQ
How it was run: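 Avi-tagged human GKRP preincubated with compound for 20 min at room temperature, then 6 nM GK-fluorescein (concentration of added solution) introduced and incubated 2 h in the dark. Buffer: 20 mM Tris pH 7.5, 0.05% BSA, 1 mM DTT, 1 μM sorbitol-6-phosphate. Plate read on a fluorescence reader.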

[2] = biological target: T2, GKRP (Glucokinase Regulatory Protein) with human His-hepatic GK (Homo sapiens, UniProt Q14397); assay: biochemical
T2 sequence (Q14397 1-625): T1 sequence (Q14397 1-625)
How it was run: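 Human His-tagged hepatic GK (30 nM in the 5× working stock) in 50 mM Tris pH 7.5, 4 mM MgCl2, 6% DMSO with DTT, BSA and Brij-35. Enzyme was added after a 30 min step and reacted 30 min at room temperature. The reaction was stopped with acetonitrile and 13C-glucose-6-phosphate formed from 13C-glucose was quantified by LC MS/MS.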

[3] = avi-tagged GKRP, GK-fluorescein, AlphaScreen beads, read-out: GK-GKRP IC50 (Binding)
[4] = GK-GKRP EC50 (LC MS/MS-2), 13C-glucose-6-phosphate formation, 280 nM GKRP (10×), 30 nM GK (5×)
[5] = 13C-glucose-6-phosphate formation, 280 nM GKRP (10×), 30 nM GK (5×), read-out: GK-GKRP EC50 (LC MS/MS-2)

Row | Compound | pIC50 [1, 3] | pEC50 [2, 5] | also measured
1 | Nc1ccc(S(=O)(=O)N2CCN(c3ncc(C(O)(C(F)(F)F)C(F)(F)F)cn3)[C@@H](CC3CCOCC3)C2)s1 [Example 133, 2-(2-((2S)-4-((5-amino-2-thiophenyl)sulfonyl)-2-(tetrahydro-2H-pyran-4-ylmethyl)-1-piperazinyl)-5-pyrimidinyl)-1,1,1,3,3,3-hexafluoro-2-propanol] | 7.33 | – | pEC50 [2, 4]: 7.23
2 | C[C@H]1CN(S(=O)(=O)c2ccc(N)nc2)CCN1c1ncc(C(O)(C(F)(F)F)C(F)(F)F)cn1 [Example 93, 2-(2-((2S)-4-((6-amino-3-pyridinyl)sulfonyl)-2-methyl-1-piperazinyl)-5-pyrimidinyl)-1,1,1,3,3,3-hexafluoro-2-propanol] | 6.72 | 6.71 | –
3 | CC(O)(c1ccc(N2CCN(S(=O)(=O)c3cccs3)C[C@@H]2CNS(=O)(=O)c2ccccc2)cc1)C(F)(F)F (mixture of isomers) [Example 193, N-(((2S)-4-(2-thiophenylsulfonyl)-1-(4-(2,2,2-trifluoro-1-hydroxy-1-methylethyl)phenyl)-2-piperazinyl)methyl)benzenesulfonamide] | 6.55 | – | pEC50 [2, 4]: 6.43
4 | C[C@H]1COCCN1C[C@H]1CN(S(=O)(=O)c2cccs2)CCN1c1ccc(C(O)(CO)C(F)(F)F)cc1 (single isomer, unassigned) [Example 83 Peak #2] | 7.66 | 7.80 | –
5 | Nc1ccc(S(=O)(=O)N2CCN(c3ccc(C(O)(C(F)(F)F)C(F)(F)F)cc3)[C@@H](CC3CCOCC3)C2)cn1 [Example 126, 2-(4-((2S)-4-((6-amino-3-pyridinyl)sulfonyl)-2-(tetrahydro-2H-pyran-4-ylmethyl)-1-piperazinyl)phenyl)-1,1,1,3,3,3-hexafluoro-2-propanol] | 7.66 | 7.43 | –
6 | O=S(=O)(c1nccs1)N1CCN(c2ncc(C(O)(C(F)(F)F)C(F)(F)F)cn2)[C@@H](CN2C3COCC2C(O)C3)C1 (stereo partly drawn) [Example 81, 8-(((2S)-4-(1,3-thiazol-2-ylsulfonyl)-1-(5-(2,2,2-trifluoro-1-hydroxy-1-(trifluoromethyl)ethyl)-2-pyrimidinyl)-2-piperazinyl)methyl)-3-oxa-8-azabicyclo[3.2.1]octan-6-ol] | 6.75 | 6.54 | –
7 | C[C@H]1CN(S(=O)(=O)c2ccc(N)s2)CCN1c1ccc(C(O)(C(F)(F)F)C(F)(F)F)cc1 [Example 149, 2-(4-((2S)-4-((5-amino-2-thiophenyl)sulfonyl)-2-methyl-1-piperazinyl)phenyl)-1,1,1,3,3,3-hexafluoro-2-propanol] | 6.35 | 6.96 | –
8 | CC(O)(c1ccc(N2CCN(S(=O)(=O)c3cccs3)C[C@@H]2COCC2CCCO2)cc1)C(F)(F)F (mixture of isomers) [Example 118, 1,1,1-trifluoro-2-(4-((2R)-2-((tetrahydro-2-furanylmethoxy)methyl)-4-(2-thiophenylsulfonyl)-1-piperazinyl)phenyl)-2-propanol] | 6.24 | 5.95 | –
9 | Nc1ccc(S(=O)(=O)N2CCN(c3ncc(C(O)(C(F)(F)F)C(F)(F)F)cn3)[C@@H](CC3CCOCC3)C2)cn1 [Example 130, 2-(2-((2S)-4-((6-amino-3-pyridinyl)sulfonyl)-2-(tetrahydro-2H-pyran-4-ylmethyl)-1-piperazinyl)-5-pyrimidinyl)-1,1,1,3,3,3-hexafluoro-2-propanol] | 7.21 | 6.87 | –
10 | CC(C)C1C(=O)NCCN1C[C@H]1CN(S(=O)(=O)c2cccs2)CCN1c1ccc(C(C)(O)C(F)(F)F)cc1 (single isomer, unassigned) [Example 181 Peak #2] | 9.00 | 7.85 | –
11 | CC1(C)C(=O)NCCN1C[C@H]1CN(S(=O)(=O)c2cccs2)CCN1c1ccc(C(C)(O)C(F)(F)F)cc1 (single isomer, unassigned) [Example 180 Peak #1] | 7.96 | 7.40 | –
12 | Nc1ccc(S(=O)(=O)N2CCN(c3ncc(C(O)(C(F)(F)F)C(F)(F)F)cn3)[C@@H](CN3C4COCC3CC(=O)C4)C2)cn1 [Example 99 nonan-7-one, 9-(((2S)-4-((6-amino-3-pyridinyl)sulfonyl)-1-(5-(2,2,2-trifluoro-1-hydroxy-1-(trifluoromethyl)ethyl)-2-pyrimidinyl)-2-piperazinyl)methyl)-3-oxa-9-azabicyclo[3.3.1]nonan-7-one] | 7.12 | 7.01 | –
13 | CC(O)(c1ccc(N2CCN(S(=O)(=O)c3cccs3)C[C@@H]2CN2CCOC[C@H]2CO)cc1)C(F)(F)F (single isomer, unassigned) [Example 110 Peak #2] | – | – | pIC50 ([1]; read-out: GK-GKRP IC50 (Binding)): 7.10; pEC50 ([2]; read-out: GK-GKRP EC50 (LC MS/MS-2)): 6.88
14 | CC1(C)C(=O)NCCN1C[C@H]1CN(S(=O)(=O)c2cccs2)CCN1c1ccc(C(C)(O)C(F)(F)F)cc1 (single isomer, unassigned) [Example 180 Peak #2] | 8.10 | 7.38 | –
15 | C[C@H]1CN(S(=O)(=O)c2ccc(N)nc2)CCN1c1ccc(C(O)(C(F)(F)F)C(F)(F)F)cc1 [Example 92, 2-(4-((2S)-4-((6-amino-3-pyridinyl)sulfonyl)-2-methyl-1-piperazinyl)phenyl)-1,1,1,3,3,3-hexafluoro-2-propanol] | 6.69 | 6.63 | –
16 | CC(C)C1C(=O)NCCN1C[C@H]1CN(S(=O)(=O)c2cccs2)CCN1c1ncc(C(O)(C(F)(F)F)C(F)(F)F)cn1 (mixture of isomers) [Example 185, 3-(1-methylethyl)-4-(((2S)-4-(2-thiophenylsulfonyl)-1-(5-(2,2,2-trifluoro-1-hydroxy-1-(trifluoromethyl)ethyl)-2-pyrimidinyl)-2-piperazinyl)methyl)-2-piperazinone] | 9.00 | 7.80 | –
17 | CC1CNC(=O)CN1C[C@H]1CN(S(=O)(=O)c2cccs2)CCN1c1ccc(C(C)(O)C(F)(F)F)cc1 (mixture of isomers) [Example 183, 5-methyl-4-(((2S)-4-(2-thiophenylsulfonyl)-1-(4-(2,2,2-trifluoro-1-hydroxy-1-methylethyl)phenyl)-2-piperazinyl)methyl)-2-piperazinone] | 6.77 | 6.54 | –
18 | CC(O)(c1ccc(N2CCN(S(=O)(=O)c3cccs3)C[C@@H]2CN2C[C@H]3COC[C@H]3C2)cc1)C(F)(F)F (stereo partly drawn) [Example 123, 1,1,1-trifluoro-2-(4-((2S)-2-((3aR,6aS)-tetrahydro-1H-furo[3,4-c]pyrrol-5(3H)-ylmethyl)-4-(2-thiophenylsulfonyl)-1-piperazinyl)phenyl)-2-propanol] | – | – | pIC50 ([1]; GK-GKRP IC50 (Binding)): 6.17; pEC50 ([2]; GK-GKRP EC50 (LC MS/MS-2)): 6.14
19 | CC1(C)C(=O)NCCN1C[C@H]1CN(S(=O)(=O)c2cccs2)CCN1c1ncc(C(O)(C(F)(F)F)C(F)(F)F)cn1 [Example 226, 3,3-dimethyl-4-(((2S)-4-(2-thiophenylsulfonyl)-1-(5-(2,2,2-trifluoro-1-hydroxy-1-(trifluoromethyl)ethyl)-2-pyrimidinyl)-2-piperazinyl)methyl)-2-piperazinone] | 8.22 | 7.85 | –
20 | CC(O)(c1ccc(N2CCN(S(=O)(=O)c3cccs3)C[C@@H]2CS(=O)(=O)c2ccccc2)cc1)C(F)(F)F (single isomer, unassigned) [Example 187 Peak#2] | 7.23 | 7.28 | –
21 | CC(O)(c1ccc(N2CCN(S(=O)(=O)c3cccs3)C[C@@H]2CN2CC3(COC3)C2)cc1)C(F)(F)F (mixture of isomers) [Example 84, 1,1,1-trifluoro-2-(4-((2S)-2-(2-oxa-6-azaspiro[3.3]hept-6-ylmethyl)-4-(2-thiophenylsulfonyl)-1-piperazinyl)phenyl)-2-propanol] | 6.18 | – | pEC50 ([2]; GK-GKRP EC50 (LC MS/MS-2)): 6.18
22 | CC(O)(c1ccc(N2CCN(S(=O)(=O)c3cccs3)C[C@@H]2CN(C2COC2)S(C)(=O)=O)cc1)C(F)(F)F (mixture of isomers) [Example 207, N-3-oxetanyl-N-(((2R)-4-(2-thiophenylsulfonyl)-1-(4-(2,2,2-trifluoro-1-hydroxy-1-methylethyl)phenyl)-2-piperazinyl)methyl)methanesulfonamide] | 6.62 | 6.59 | –
23 | C[C@H]1COCCN1C[C@H]1CN(S(=O)(=O)c2cccs2)CCN1c1ncc(C(O)(C(F)(F)F)C(F)(F)F)cn1 [Example 82, 1,1,1,3,3,3-hexafluoro-2-(2-((2S)-2-(((3S)-3-methyl-4-morpholinyl)methyl)-4-(2-thiophenylsulfonyl)-1-piperazinyl)-5-pyrimidinyl)-2-propanol] | 7.82 | 7.59 | –
